From ChEMBL document CHEMBL1909046, “DrugMatrix in vitro pharmacology data”

Key:
[1] = DRUGMATRIX: ATPase, Na+/K+ enzyme inhibition (substrate: ATP); assay type: tissue-based, Sus scrofa, Heart; conditions: Not Active = under 50% inhibition at 10 µM
[2] = DRUGMATRIX: Atrial Natriuretic Factor (ANF) radioligand binding (ligand: [125I] ANF (rat)); assay type: cell membranes, Cavia porcellus, Dunkin-Hartley, Adrenal gland, Membrane; conditions: Not Active = under 50% inhibition at 10 µM
[3] = DRUGMATRIX: Calcium Channel Type L, Phenylalkylamine radioligand binding (ligand: [3H] (-)-Desmethoxyverapamil (D-888)); assay type: cell membranes, Rattus norvegicus, Wistar, Brain, Membrane; conditions: Not Active = under 50% inhibition at 10 µM
[4] = biological target: T1, C-X-C chemokine receptor type 2 (Homo sapiens, UniProt P25025); assay type: cell membranes, CHO-K1, Membrane; conditions: cho-k1; note: in other assays of this panel Not Active means under 50% inhibition at 10 µM
T1 sequence (P25025 whole entry): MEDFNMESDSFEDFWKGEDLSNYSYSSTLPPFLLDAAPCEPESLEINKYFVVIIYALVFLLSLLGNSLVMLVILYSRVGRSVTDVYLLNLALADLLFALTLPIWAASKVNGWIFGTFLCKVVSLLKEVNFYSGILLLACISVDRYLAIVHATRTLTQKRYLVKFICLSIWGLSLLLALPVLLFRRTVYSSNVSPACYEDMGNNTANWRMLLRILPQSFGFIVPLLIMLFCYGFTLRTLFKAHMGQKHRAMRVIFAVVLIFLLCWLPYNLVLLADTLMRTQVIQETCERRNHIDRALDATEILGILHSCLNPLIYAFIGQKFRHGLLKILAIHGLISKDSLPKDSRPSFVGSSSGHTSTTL

[5] = DRUGMATRIX: Glutamate, NMDA, Agonism radioligand binding (ligand: [3H] CGP-39653); assay type: cell membranes, Rattus norvegicus, Wistar, Cerebral cortex, Membrane; conditions: Not Active = under 50% inhibition at 10 µM
[6] = biological target: T2, Nitric oxide synthase, inducible (Mus musculus, UniProt P29477); parameters: species or system Escherichia coli;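 note: inhibition of iNOS enzyme activity measured with L-arginine as substrate; in other assays of this panel Not Active means under 50% inhibition at 10 µM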
T2 sequence (P29477 whole entry): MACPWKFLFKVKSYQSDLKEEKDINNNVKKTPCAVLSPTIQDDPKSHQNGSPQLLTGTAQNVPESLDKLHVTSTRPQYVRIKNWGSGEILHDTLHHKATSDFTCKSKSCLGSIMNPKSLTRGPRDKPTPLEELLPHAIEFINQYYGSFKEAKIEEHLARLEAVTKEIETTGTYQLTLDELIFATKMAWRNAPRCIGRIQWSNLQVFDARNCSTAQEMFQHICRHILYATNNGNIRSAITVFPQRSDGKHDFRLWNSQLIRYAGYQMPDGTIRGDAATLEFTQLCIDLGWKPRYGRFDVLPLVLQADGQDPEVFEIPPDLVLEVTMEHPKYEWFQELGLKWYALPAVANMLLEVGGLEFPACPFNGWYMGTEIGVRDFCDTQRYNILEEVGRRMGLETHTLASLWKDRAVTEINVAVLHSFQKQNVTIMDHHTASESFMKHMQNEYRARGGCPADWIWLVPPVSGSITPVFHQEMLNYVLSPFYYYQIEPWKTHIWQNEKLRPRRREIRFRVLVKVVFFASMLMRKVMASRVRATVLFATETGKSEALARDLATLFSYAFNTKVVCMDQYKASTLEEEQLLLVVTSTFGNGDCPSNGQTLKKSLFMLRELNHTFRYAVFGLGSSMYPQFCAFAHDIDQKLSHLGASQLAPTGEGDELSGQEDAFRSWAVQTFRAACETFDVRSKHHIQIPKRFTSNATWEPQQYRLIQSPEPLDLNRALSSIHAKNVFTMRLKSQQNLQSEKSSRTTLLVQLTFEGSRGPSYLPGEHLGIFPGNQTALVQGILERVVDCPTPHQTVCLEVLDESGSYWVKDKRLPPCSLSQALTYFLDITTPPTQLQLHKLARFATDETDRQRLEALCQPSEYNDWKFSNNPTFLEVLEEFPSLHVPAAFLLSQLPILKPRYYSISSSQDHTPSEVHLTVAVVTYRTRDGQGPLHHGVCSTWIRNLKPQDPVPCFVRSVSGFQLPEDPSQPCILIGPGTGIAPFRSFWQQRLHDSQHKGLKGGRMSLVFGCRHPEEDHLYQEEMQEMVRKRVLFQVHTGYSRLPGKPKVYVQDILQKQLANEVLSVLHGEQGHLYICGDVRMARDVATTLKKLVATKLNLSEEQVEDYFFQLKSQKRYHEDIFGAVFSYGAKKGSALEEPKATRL

[7] = biological target: Delta-type opioid receptor (Homo sapiens, UniProt P41143); assay type: cell membranes, HEK293, Membrane; conditions: hek293; note: in other assays of this panel Not Active means under 50% inhibition at 10 µM
Delta-type opioid receptor, sequence (P41143 whole entry): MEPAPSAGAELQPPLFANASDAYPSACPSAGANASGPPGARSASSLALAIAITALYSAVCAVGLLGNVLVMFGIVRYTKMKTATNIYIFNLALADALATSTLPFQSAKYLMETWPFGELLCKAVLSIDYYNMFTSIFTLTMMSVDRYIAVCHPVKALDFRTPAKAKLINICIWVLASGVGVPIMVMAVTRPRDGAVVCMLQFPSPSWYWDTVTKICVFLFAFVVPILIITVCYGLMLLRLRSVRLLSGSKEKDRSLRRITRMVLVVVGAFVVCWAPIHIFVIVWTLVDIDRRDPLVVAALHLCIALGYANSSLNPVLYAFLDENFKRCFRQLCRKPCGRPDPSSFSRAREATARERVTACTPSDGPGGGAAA

COC(=O)C[C@](O)(CCC(C)(C)O)C(=O)O[C@@H]1C(OC)=C[C@]23CCCN2CCc2cc4c(cc2[C@H]13)OCO4 [HARRINGTONINE]
Not Active: IC50 [1] | Ki [1] | IC50 [2] | Ki [2] | IC50 [3] | Ki [3] | IC50 [4] | IC50 [5] | Ki [5] | IC50 [6] | IC50 [7]

CC12CCC(CC1=O)C2(C)C (stereo unspecified) [CAMPHOR]
Not Active: IC50 [1] | Ki [1] | IC50 [2] | Ki [2] | IC50 [3] | Ki [3] | IC50 [4] | IC50 [5] | Ki [5] | IC50 [6] | IC50 [7]

CCN1CCN(C(=O)N[C@@H](C(=O)N[C@@H]2C(=O)N3[C@@H]2SC(C)(C)[C@@H]3C(=O)O)c2ccccc2)C(=O)C1=O [PIPERACILLIN]
Not Active: IC50 [1] | Ki [1] | IC50 [2] | Ki [2] | IC50 [3] | Ki [3] | IC50 [4] | IC50 [5] | Ki [5] | IC50 [6] | IC50 [7]

C=CCO [ALLYL ALCOHOL]
Not Active: IC50 [1] | Ki [1] | IC50 [2] | Ki [2] | IC50 [3] | Ki [3] | IC50 [4] | IC50 [5] | Ki [5] | IC50 [6] | IC50 [7]

O=C(O)CCc1nc(-c2ccccc2)c(-c2ccccc2)o1 [OXAPROZIN]
Not Active: IC50 [1] | Ki [1] | IC50 [2] | Ki [2] | IC50 [3] | Ki [3] | IC50 [4] | IC50 [5] | Ki [5] | IC50 [6] | IC50 [7]

c1ccc2sc(SSc3nc4ccccc4s3)nc2c1 [BENZOTHIAZYL DISULFIDE]
Not Active: IC50 [1] | Ki [1] | IC50 [2] | Ki [2] | IC50 [3] | Ki [3] | IC50 [4] | IC50 [5] | Ki [5] | IC50 [6] | IC50 [7]

O=C1CN(/N=C/c2ccc([N+](=O)[O-])o2)C(=O)N1 [NITROFURANTOIN]
Not Active: IC50 [1] | Ki [1] | IC50 [2] | Ki [2] | IC50 [3] | Ki [3] | IC50 [4] | IC50 [5] | Ki [5] | IC50 [6] | IC50 [7]

NCC(CC(=O)O)c1ccc(Cl)cc1 (stereo unspecified) [BACLOFEN]
Not Active: IC50 [1] | Ki [1] | IC50 [2] | Ki [2] | IC50 [3] | Ki [3] | IC50 [4] | IC50 [5] | Ki [5] | IC50 [6] | IC50 [7]

OC[C@H]1O[C@@H]2O[C@H]3[C@H](O)[C@@H](O)[C@@H](O[C@H]4[C@H](O)[C@@H](O)[C@@H](O[C@H]5[C@H](O)[C@@H](O)[C@@H](O[C@H]6[C@H](O)[C@@H](O)[C@@H](O[C@H]7[C@H](O)[C@@H](O)[C@@H](O[C@H]8[C@H](O)[C@@H](O)[C@@H](O[C@H]1[C@H](O)[C@H]2O)O[C@@H]8CO)O[C@@H]7CO)O[C@@H]6CO)O[C@@H]5CO)O[C@@H]4CO)O[C@@H]3CO [BETADEX]
Not Active: IC50 [1] | Ki [1] | IC50 [2] | Ki [2] | IC50 [3] | Ki [3] | IC50 [4] | IC50 [5] | Ki [5] | IC50 [6] | IC50 [7]

CC(C)NCC(O)COc1ccc(CC(N)=O)cc1 (stereo unspecified) [ATENOLOL]
Not Active: IC50 [1] | Ki [1] | IC50 [2] | Ki [2] | IC50 [3] | Ki [3] | IC50 [4] | IC50 [5] | Ki [5] | IC50 [6] | IC50 [7]

Cl.NC[C@H]1CC[C@H](C(=O)Oc2ccc(CCC(=O)O)cc2)CC1 [CETRAXATE HYDROCHLORIDE]
Not Active: IC50 [1] | Ki [1] | IC50 [2] | Ki [2] | IC50 [3] | Ki [3] | IC50 [4] | IC50 [5] | Ki [5] | IC50 [6] | IC50 [7]

O=C(NCCN1CCOCC1)c1ccc(Cl)cc1 [MOCLOBEMIDE]
Not Active: IC50 [1] | Ki [1] | IC50 [2] | Ki [2] | IC50 [3] | Ki [3] | IC50 [4] | IC50 [5] | Ki [5] | IC50 [6] | IC50 [7]

CARBOXYMETHYLCELLULOSE
Not Active: IC50 [1] | Ki [1] | IC50 [2] | Ki [2] | IC50 [3] | Ki [3] | IC50 [4] | Ki [4] | IC50 [5] | Ki [5] | IC50 [6] | Ki [6] | IC50 [7] | Ki [7]

C[C@@H]1[C@H](O)[C@@H](C)/C=C/C=C/C=C/C=C/C=C/C=C/C=C/[C@H](O[C@@H]2O[C@H](C)[C@@H](O)[C@H](N)[C@@H]2O)C[C@@H]2O[C@](O)(C[C@@H](O)C[C@@H](O)[C@H](O)CC[C@@H](O)C[C@@H](O)CC(=O)O[C@H]1C)C[C@H](O)[C@H]2C(=O)O [AMPHOTERICIN B]
Not Active: IC50 [1] | Ki [1] | IC50 [2] | Ki [2] | IC50 [3] | Ki [3] | IC50 [4] | IC50 [5] | Ki [5] | IC50 [6] | IC50 [7]

CCN(CCO)CCCC(C)Nc1ccnc2cc(Cl)ccc12 (stereo unspecified) [HYDROXYCHLOROQUINE]
Not Active: IC50 [1] | Ki [1] | IC50 [2] | Ki [2] | IC50 [3] | Ki [3] | IC50 [4] | IC50 [5] | Ki [5] | IC50 [6] | IC50 [7]

CCC1(c2ccccc2)C(=O)NC(=O)NC1=O [PHENOBARBITAL]
Not Active: IC50 [1] | Ki [1] | IC50 [2] | Ki [2] | IC50 [3] | Ki [3] | IC50 [4] | IC50 [5] | Ki [5] | IC50 [6] | IC50 [7]

CC(C)(C#N)c1cc(Cn2cncn2)cc(C(C)(C)C#N)c1 [ANASTROZOLE]
Not Active: IC50 [1] | Ki [1] | IC50 [2] | Ki [2] | IC50 [3] | Ki [3] | IC50 [4] | IC50 [5] | Ki [5] | IC50 [6] | IC50 [7]

OC[C@H]1O[C@@H]2O[C@H]3[C@H](O)[C@@H](O)[C@@H](O[C@H]4[C@H](O)[C@@H](O)[C@@H](O[C@H]5[C@H](O)[C@@H](O)[C@@H](O[C@H]6[C@H](O)[C@@H](O)[C@@H](O[C@H]7[C@H](O)[C@@H](O)[C@@H](O[C@H]1[C@H](O)[C@H]2O)O[C@@H]7CO)O[C@@H]6CO)O[C@@H]5CO)O[C@@H]4CO)O[C@@H]3CO [ALFADEX]
Not Active: IC50 [1] | Ki [1] | IC50 [2] | Ki [2] | IC50 [3] | Ki [3] | IC50 [4] | IC50 [5] | Ki [5] | IC50 [6] | IC50 [7]
